Measurements published in US20250041261A1, “METHODS AND COMPOSITIONS FOR TREATING MELANOMA” (INSTITUT NATIONAL DE LA SANTÉ ET DE LA RECHERCHE MÉDICALE, priority 2021, published 2025).
“Also recorded” adds a separate entry of the source.

Columns and labels:
[1] = tested on: primary uveal melanoma cells (MP46 and MP65) or metastatic uveal melanoma cells (OMM1.3) expressing or not BAP1; assay: Colony formation assay; type: cell-based, human; details: MP46, MP65, OMM1.3, whether BAP1 is expressed or not; 7 days
Source text: FIG. 6: Colony formation assay of primary uveal melanoma cells (MP46 and MP65) or metastatic uveal melanoma cells (OMM1.3) expressing or not BAP1 after seeding them for 7 days upon treatment with the drugs indicated on the figure. Representative wells are shown.

[2] = tested on: MP46 and OMM1.3 human uveal melanoma cells; assay: Fe (ii) detection in lysosomes with RhoNox-M fluorescent probe; type: cell-based; details: AM23 30 nM or 100 nM, salinomycin 0.5 mM, 48 h, then RhoNox-M 1 h, compared to control cells
Protocol: A. MP46 and B. OMM1.3 human uveal melanoma cells were seeded at 5000 cells/well on a glass coverslip and were treated with DMSO (Ctl), AM23 (30 nM or 100 nM) or salinomycin (0.5 mM) for 48 h and then with RhoNox-M for 1 h for Fe 2+ detection. Representative confocal fluorescence microscopy images.
To assess whether AM23 triggers lysosomal iron accumulation, we evaluated whether endocytic vesicles contained Fe (ii) as previously reported. To this aim, the Fe (ii)-specific turn-on fluorescent probe RhoNox-M, which can detect the presence of Fe (ii) in lysosomes, was used. […] In response to the ensuing cytoplasmic depletion of iron, cells triggered in lysosomes the degradation of ferritin, which stores cellular iron, leading to further iron loading in this organelle.

[3] = tested on: ferritin; assay: Western blot of ferritin expression; type: cell-based, human; details: OMM1.3 and MP46 cells; AM23 100 nM or salinomycin 0.5 mM for 48 h; immunoblot
Protocol: FIG. 5: Effect of AM23 or salinomycin on ferritin expression. OMM1.3 and MP46 human uveal melanoma cells were left untreated (UNT) or were treated with DMSO (Ctl), AM23 (100 nM) or salinomycin (0.5 mM) for 48 h. Cell lysates were analysed by immunoblot with antibodies to ferritin. Actin was used as a loading control.
Briefly, uveal melanoma cell lysates (50 μg) were separated using SDS-PAGE, transferred onto a PVDF membrane and subsequently exposed to the appropriate antibodies, anti-ferritin (#sc376594, 1/1,000) and anti-actin (sc47778, 1/1,000) from Santa Cruz Biotechnology. The proteins were visualized using the ECL system (Amersham). The western blots shown are representative of at least 3 independent experiments.

[4] = tested on: Uveal melanoma cells (OMM1.3, MM28, MP46, MP65); assay: Cell survival assay (PrestoBlue), 2D-cultures; type: cell-based, human; details: increasing concentrations, PrestoBlue after 96 h / 72 h
Protocol: Uveal melanoma cells (OMM1.3, MM28, MP46, MP65) were seeded at 5,000 cells/well in a 96-well plate and treated with increasing concentrations of AM23, salinomycin or staurosporine as positive control as indicated on the figure. The condition “milieu RPMI” represents medium without cells. After 96 h of incubation, cells were incubated with PrestoBlue reagent according to manufacture instructions. The absorbance per well was measured with a microplate reader. The data were then analyzed using excel.
Uveal melanoma cells were seeded at 5,000 cells/well in a 96-well plate and treated with salinomycin or ironomycin as well as a positive control (staurosporin, 500 nM). After 72 h of incubation, cells were treated with PrestoBlue reagent according to manufacture instructions (Thermofisher). The absorbance per well was measured with a microplate reader. The data were then analyzed using excel software.
Uveal melanoma cells are known to hardly enter into apoptosis in response to treatments. Thus, we investigated the effects of salinomycin (Sal) and its derivate called ironomycin (AM23) that have been shown, in different cancer cells, to trigger ferroptosis, a type of cell death based on accumulation of iron into lysosomes and subsequent lysosomal membrane permeabilization. We treated a panel of uveal melanoma cells, i.e the human metastatic OMM1.3 (BAP1+) and MM28 (BAP1+) cells, and the human primary MP46 (BAP1−) and MP65 (BAP1−) cells, with Sal or its derivate AM23 to determine if these drugs can represent potential therapeutic options.

[5] = tested on: Primary (MP46) or metastatic (OMM1, OMM2.5, OMM1.3) uveal melanoma cells; assay: PrestoBlue proliferation/survival assay (FIG. 7); type: cell-based, human; details: MP46, OMM1, OMM2.5, OMM1.3, increasing concentrations, 72 h
Protocol: FIG. 7: Primary (MP46) or metastatic (OMM1, OMM2.5, OMM1.3) uveal melanoma cells were seeded at 3000 cells/well in a 96 well plate and treated with increasing concentrations of salinomycin, AM23 or AM5. After 72 h of incubation, cells were treated with PrestoBlue reagent according to manufacture instructions. The absorbance per well was measured with a microplate reader. The data were then analyzed using Prism8. Histograms bars represent the average of three replicates #standard error of the mean (s.e.m).

[6] = tested on: PLX-resistant metastatic cutaneous melanoma cells; assay: Cell count of PLX-sensitive and resistant cutaneous melanoma cells; type: cell-based; design: dose or concentration left out as unconfirmed; details: increasing concentrations of AM23 or AM5 in presence or absence of PLX; cells counted after 72 h; FIG. 1
Protocol: PLX-sensitve and resistant cutaneous melanoma cells, seeded at 150,000 cells/well in 6-well dishes, were treated with increasing concentrations of AM23 or AM5 in presence or absence of PLX ([…]). Cells were manually counted after 72 h.
PLX-sensitve and resistant cutaneous melanoma cells were seeded at 150,000 cells/well in 6-well dishes. They were treated with increasing concentrations of AM23 or AM5 in presence or absence of PLX ([…]). Cells were manually counted after 72 h.

[7] = tested on: Uveal melanoma cells (OMM1.3, MM28, MP65 and MP46); assay: Spheroid (melanosphere) formation, 3D-cultures; type: cell-based, human; details: AM23 100 nM (or 1 mM); low attachment plates; pictures after 8 days
Protocol: Uveal melanoma cells (OMM1.3, MM28, MP65 and MP46) were seeded at 5000 cells/well in 6-well low attachment plates and were left untreated (0) or were treated with DMSO (Ctl) or AM23 (100 nM or 1 mM) 24 hours later. Representative pictures taken after 8 days are shown.
Uveal melanoma cells were seeded at a density of 5,000 cells per well and grown in MEF medium (R&D systems, #AR005) supplemented with 4 ng/ml FGF2 in low adherence plates. The following day, wells were supplemented with ironomycin (100 nM or 1 mM). Photographs were taken using a phase contrast microscope (EVOS XL Core Imaging System).

`CC[C@@H](C(=O)O)C1CC[C@H](C)[C@H]([C@@H](C)[C@H](O)[C@H](C)C(=O)[C@H](CC)[C@H]2OC3(C=C[C@@H](O)C4(CC[C@@](C)([C@H]5CC[C@](O)(CC)[C@H](C)O5)O4)O3)[C@H](C)C[C@@H]2C)O1` (stereo in doubt) [Salinomycin, (2R)-2-[(5S,6R)-6-[(1S,2S,3S,5R)-5-[(2S,5R,7S,9S,10S, 12R, 15R)-2-[(2R,5R,6S)-5-ethyl-5-hydroxy-6-methyl-2-tetrahydropyranyl]-15-hydroxy-2,10,12-trimethyl-1,6,8-trioxadispiro[4.1.57.35]pentadec-13-en-9-yl]-2-hydroxy-1,3-dimethyl-4-oxoheptyl]-5-methyl-2-tetrahydropyranyl]butanoic acid, reference compound] was tested, and the “ability of uveal melanoma cells to form colonies” value [1] was “strong reduction”, the “Fe (ii) / iron accumulation in lysosomes (RhoNox-M fluorescence)” value (“Fe (ii) / iron accumulation in lysosomes” for short) [2] was “induces Fe (ii) in lysosomes” and the “Fe (ii) / iron accumulation in lysosomes” value ([2]; listed as Sal) was “exhibited fluorescent RhoNox-M-positive vesicles”. For the same compound, the ferritin expression [3] was “strongly reduced”, the “proliferation/survival of uveal melanoma cells in 2D-cultures” value (“proliferation/survival … in 2D-cultures” for short) [4] was “induces uveal melanoma cell death” and the “proliferation/survival … in 2D-cultures” value ([4]; listed as Sal) was “reduced proliferation/survival”.

With `C#CCN[C@@H]1C=C[C@]2(O[C@H]([C@@H](CC)C(=O)[C@@H](C)[C@@H](O)[C@H](C)C3O[C@@H](C(CC)C(=O)O)CC[C@@H]3C)[C@@H](C)C[C@H]2C)O[C@@]12CC[C@@](C)([C@H]1CC[C@](O)(CC)[C@H](C)O1)O2` (stereo partly shown) [AM5] the “uveal melanoma cell proliferation/survival (FIG. 7)” value [5] was “decreases uveal melanoma cell proliferation/survival, yet with a little bit lower efficacy than AM23”.

For `C#CCN[C@@H]1C=C[C@]2(O[C@H]([C@@H](CC)C(=O)[C@@H](C)[C@@H](O)[C@H](C)[C@@H]3O[C@@H]([C@@H](CC)C(=O)O)CC[C@@H]3C)[C@@H](C)C[C@H]2C)O[C@@]12CC[C@@](C)([C@H]1CC[C@](O)(CC)[C@H](C)O1)O2` [AM23, (2R)-2-[(2R,5S,6R)-6-{(2S,3S,4S,6R)-6-[(2S,5S,7R,9S,10S,12R,15R)-2-[(2R,5R,6S)-5-Ethyl-5-hydroxy-6-methyltetrahydro-2H-pyran-2-yl]-2, 10,12-trimethyl-15-(2-propyn-1-ylamino)-1,6,8-trioxadispiro[4.1.5.3]pentadec-13-en-9-yl]-3-hydroxy-4-methyl-5-oxo-2-octanyl}-5-methyltetrahydro-2H-pyran-2-yl]butanoic acid], the “ability of uveal melanoma cells to form colonies” value [1] was “strong reduction”, the “Fe (ii) / iron accumulation in lysosomes” value [2] was “induces Fe (ii) in lysosomes; also recorded: exhibited fluorescent RhoNox-M-positive vesicles” and the ferritin expression [3] was “strongly reduced”. The “proliferation/survival … in 2D-cultures” value [4] was “induces uveal melanoma cell death; also recorded: reduced proliferation/survival”, the “resensitization of PLX-resistant cells to PLX effects (cell count)” value [6] was “resensitizes PLX-resistant metastatic cutaneous melanoma cells to PLX effects” and the “melanosphere formation / cell survival in 3D-cultures” value [7] was “prevents melanosphere formation; also recorded: almost complete disappearance of melanospheres”.
